Experimental data taken from PMC3898417, “A peptide derived from TIMP-3 inhibits multiple angiogenic growth factor receptors and tumour growth and inflammatory arthritis in mice” (Angiogenesis, 2013).
Bridges are numbered along the chain shown (N, C = ends). Where no end group is shown, it is not given here.

Key:
[1] = tested on: recombinant human VEGFR-2; assay: Solid phase binding assay: competition with biotinylated-VEGF165; settings: plate-coated rhVEGFR-2-Fc; biotinylated-VEGF165 2.4 nM, 1 h room temperature; Fig. 1
Experimental: Ninety six-well plates were coated with the extracellular domain of recombinant human VEGFR-2 fused to the Fc domain of human IgG1 (rhVEGFR-2, R&D Systems, UK) by overnight incubation followed by blocking in 5 % bovine serum albumin/PBS. […] After washing, the biotinylated-VEGF165 was detected with avidin-horse-radish peroxidase and OPD substrate (Sigma-Aldrich, UK) followed by spectrophotometry.

VEGFR-2 [2] = assay: Immunoblotting of VEGF165-induced VEGFR-2 phosphorylation; type: cell-based, human; settings: 1 μM, HuDMEC, western blot; n = 3
Experimental: (§1) Transfected HUVEC or HuDMEC pre-treated with 1 μM test peptides for 1 h, were stimulated with 0.5 nM of VEGF165 for 2, 5 or 10 min. Cells were lysed and phosphorylated proteins detected by western blotting using phospho-specific antibodies to either VEGFR-2, Erk1/2 or PI3K (New England BioLabs, UK). Band intensities were quantified using Bio-Rad Quantity One Analysis software and normalized using U, un-stimulated control, as 0 %; and VEGF165, positive control, as 100 % of protein phosphorylation.

4T1 mammary tumour = assay: Syngeneic mammary tumour model (4T1); type: in vivo, BALB/c mice
Experimental: 10^6 4T1 cells were subcutaneously (s.c.) implanted into the right flank of 5–6 weeks old female BALB/c mice (Charles River Laboratories, Margate, UK) and grown until the tumour size reached 100–350 mm^3. The tumour sizes were measured using callipers as described previously. Once the size of the tumours reached 100–350 mm^3, mice were randomized into control and treatment groups and injected with either vehicle alone (PBS), 0.025, 0.25 or 2.5 mg/kg of p700 peptide in PBS, either directly into the tumour (i.t.) once per week for 2 doses; or intravenously (i.v.) every other day for 5 doses. At the end of the experiment, animals were culled and tumours and normal tissues, including lung and liver, excised and fixed with 10 % neutral buffered formalin for subsequent analysis, which included general histology and quantitative measurement of microvascular density (MVD) and necrosis. For MVD measurement, rabbit-anti-mouse CD31 (AbD Serotech, Kidlington, Oxford, UK) antibody was used and sections were stained according to standard immunohistological staining protocols for formalin-fixed tissue sections. Microvessel density was estimated by measuring the percentage of CD31 positive staining in the tumour sections (15 areas per tumour slide, 7 tumour slides per group) using AnalySIS^^D image analysis software (Olympus, UK). For the necrotic area inside the tumour, tumour slides were stained with H&E. Images were measured at 200× magnification, photographed (15 areas per tumour slide, 7 tumour slides per group) and analysed by AnalySIS^^D image analysis software (Olympus, UK). Normal tissues including lung and liver were stained with H&E to study tumour metastasis. Total number of metastases per mouse was determined as the number of metastatic foci on five sections for each animal (n = 7). Incidence of metastasis was calculated as the percentage of mice with one or more metastatic nodules in the tissues. Metastasis severity was scored as follows: […], minimal (score 1 = ≤ 4 metastatic nodules), medium (score 2 = 5–7 metastatic nodules) or extensive involvement (score 3 = ≥ 8 metastatic nodules). Each nodule contained ≥5 nuclei.

EGFR = assay: Phospho-receptor tyrosine kinase array; type: cell-based, human; settings: HuDMEC, 100 ng/ml EGF 5 min, phospho-RTK array, preliminary screen, data not shown
Experimental: (§2) Serum-deprived HuDMEC were pre-treated with test peptides for 1 h and then stimulated with growth factors (0.5 nM VEGF165, 1.6 nM bFGF, 1 nM PDGF-BB, 1.6 nM hepatocyte growth factor, 100 ng/ml EGF or 100 ng/ml insulin-like growth factor I) for 5 min. Cells were then lysed and phosphorylated proteins detected using (a) a receptor tyrosine kinase array (Human Phospho-Receptor Tyrosine Kinase Array Kit, R&D Systems Ltd.) or (b) sandwich ELISA (Duo-sets, R&D Systems Ltd.) according to the manufacturer’s instructions.

PI3K = assay: Immunoblotting of VEGF165-induced PI3K phosphorylation; type: cell-based, human; settings: 1 μM, HuDMEC, western blot; n = 3
Experimental: as §1

[3] = tested on: insulin-like growth factor 1 receptor; assay: Phosphorylation RTK sandwich ELISA; type: cell-based, human; settings: HuDMEC, peptide 1 h, 100 ng/ml insulin-like growth factor I 5 min
Experimental: as §2

FGFR-4 = assay: Phosphorylation RTK sandwich ELISA; type: cell-based, human; settings: HuDMEC, peptide 1 h, ligand 5 min, n = 3
Experimental: as §2

HGFR = assay: Phosphorylation RTK sandwich ELISA; type: cell-based, human; settings: HuDMEC, peptide 1 h, 1.6 nM hepatocyte growth factor 5 min
Experimental: as §2

FGFR-3 = assay: Phosphorylation RTK sandwich ELISA; type: cell-based, human; settings: HuDMEC, peptide 1 h, ligand 5 min, n = 3
Experimental: as §2

VEGFR-1 [4] = assay: Phosphorylation RTK sandwich ELISA; type: cell-based, human; settings: HuDMEC, peptide 1 h, ligand 5 min, n = 3
Experimental: as §2

VEGFR-2 [5] = assay: Phosphorylation RTK sandwich ELISA; type: cell-based, human; settings: HuDMEC, peptide 1 h, ligand 5 min, n = 3
Experimental: as §2

VEGFR-3 = assay: Phosphorylation RTK sandwich ELISA; type: cell-based, human; settings: HuDMEC, peptide 1 h, ligand 5 min, n = 3
Experimental: as §2

PDGFR-α = assay: Phosphorylation RTK sandwich ELISA; type: cell-based, human; settings: HuDMEC, peptide 1 h, ligand 5 min, n = 3
Experimental: as §2

FGFR-1 = assay: Phosphorylation RTK sandwich ELISA; type: cell-based, human; settings: HuDMEC, peptide 1 h, ligand 5 min, n = 3
Experimental: as §2

FGFR-2α = assay: Phosphorylation RTK sandwich ELISA; type: cell-based, human; settings: HuDMEC, peptide 1 h, ligand 5 min, n = 3
Experimental: as §2

HuDMEC [6] = assay: VEGF165-induced cell migration (Boyden chamber); type: cell-based, human; settings: 0.5 nM VEGF165, 4.5 h, up to 1 μM, n = 4
Experimental: The ability of the p700 peptide to inhibit VEGF165-induced EC migration was determined using a multi-well Boyden chamber (Neuro Probe, Gaithersburg, USA). Briefly, serum-starved HuDMEC were treated with p700 for 1 h, washed and plated in the upper chamber in EBM-2 medium containing 1 % FCS on an 8 μm fibronectin pre-coated polycarbonate filter (Neuro Probe, Gaithersburg, USA). The cells were then left to migrate across the filter for 4.5 h at 37 °C with media containing 0.5 nM VEGF165 in the presence and absence of inhibitors in the lower chamber. After the incubation, non-migrating cells on the upper side of the membrane were scraped off and the migrated cells were stained with Hema Gurr® rapid staining kit (Merck Chemicals Ltd, Nottingham, UK). Migrated cells were counted using a light microscope at 160× magnification in three random fields per well of three separate wells.

[7] = tested on: primary human synovial cells (SC); assay: In vitro synovial cell invasion assay (GFR-Matrigel); type: cell-based; settings: rheumatoid arthritis synovial cells, peptide 1 h, 100 ng/ml PDGF-BB 22 h; n = 3
Experimental: Synovial cell invasion was determined using a GFR-Matrigel™ invasion assay kit (BD Biosciences, USA). Serum-starved SC were treated with peptide for 1 h, followed by stimulation with 100 ng/ml PDGF-BB at 37 °C for 22 h. After incubation, non-invading cells on the upper side of the chamber were removed and the invaded cells on the lower side of the membrane were fixed with methanol and stained with Hema Gurr® rapid staining solution (Merck Chemicals, Ltd.). Cells were counted using a light microscope at 160× magnification in 3 random fields per well of 3 separate wells.

[8] = tested on: collagen-induced arthritis; assay: Collagen-induced-arthritis mouse (CIA) model; type: in vivo, DBA-1 mice; settings: 2.5 mg/kg i.v. every 2 days
HuDMEC [9] = assay: VEGF165-induced cell proliferation (BrdU); type: cell-based, human; settings: peptide 1 h then 0.5 nM VEGF165 24 h, up to 1 μM, n = 4
Experimental: Human dermal microvascular endothelial cells were serum-starved followed by incubating with p700 peptide for 1 h and then 0.5 nM of VEGF165 for 24 h at 37 °C. Cell proliferation was determined using a BrdU cell proliferation assay kit (Merck Chemicals Ltd, Nottingham, UK).

HuDMEC [10] = assay: Tube formation assay on Matrigel; type: cell-based, human; settings: for inhibition of VEGF165-induced HuDMEC tube formation / inhibition of tubule formation in response to VEGF121: 1 μM peptide, n = 4; for inhibition of VEGF165-induced HuDMEC tube formation: 0.5 nM VEGF165, 6 h; for inhibition of bFGF-induced tubule formation: 1.6 nM bFGF
Experimental: Serum-starved HuDMEC were seeded onto Matrigel™ matrix pre-coated 96 well plates (BD Biosciences, Cowley, Oxford, UK) at a density of 1 × 10^4 cells/well in 100 μl EBM-2 medium. Peptides were then added into each corresponding well and incubated for 1 h at 37 °C, followed by stimulated with growth factors, 0.5 nM VEGF165, 1 nM PDGF-BB or 1.6 nM bFGF, to induce tubule development. The tubules formed were examined 6 h after stimulation under a low power (40×) light microscope. Images were captured and analysed by measuring the average tubule length using ImageJ software (National Institutes of Health, USA).

HuDMEC [11] = assay: Toxicity to HuDMEC by propidium iodide staining; type: cell-based, human; settings: data not shown
PDGFR-β = settings: cited from earlier work
Source text: (§3) TIMP-3 appears to bind VEGFR-2 specifically, with no inhibition of the closely related VEGFR-1, FGFR1 or PDGFR-β receptors.

VEGFR-1 [12] = settings: cited from earlier work
Source text: as §3

FGFR1 = settings: cited from earlier work
Source text: as §3

## GLKLEVNKYQYLLTGR [p323]
[1]
  ability to inhibit the binding of VEGF165 to rhVEGFR-2: not

## KIKSCYYLPCFVTSKN (disulfide 5-10 (inferred)) [p700]
VEGFR-2 [2]
  inhibition of VEGF165-induced VEGFR-2 phosphorylation: approximately 50%
4T1 mammary tumour; H&E sections, treated group vs control
  increased tumour necrosis: failed to reach significance
4T1 mammary tumour; both treatment groups (i.t. and i.v.) compared to control groups, n = 7 tumours/group
  reduction in microvascular density (anti-CD31 staining): approximately 50%
4T1 mammary tumour; i.v. every 2 days, 0.25 mg/kg or above, 4T1 s.c. in BALB/c mice, n = 7
  effect on tumour growth, intravenous dosing: almost totally abolished tumour growth
4T1 mammary tumour; lung and liver H&E sections, treated group vs control
  decreased metastases: failed to reach significance
4T1 mammary tumour; weekly i.t. dose of 0.25 mg/kg, 4T1 s.c. in BALB/c mice, n = 7
  effect on tumour growth, intra-tumour dosing: almost totally abolished tumour growth
EGFR
  inhibition of EGFR: not inhibited
PI3K
  inhibition of VEGF165-induced phosphorylation of PI3K: approximately 50%
[3]
  inhibition of insulin-like growth factor 1 receptor phosphorylation: no inhibition
FGFR-4
  inhibition of FGFR-4 phosphorylation: significant inhibition
HGFR
  inhibition of HGFR phosphorylation: no inhibition
FGFR-3
  inhibition of FGFR-3 phosphorylation: significant inhibition
VEGFR-1 [4]
  inhibition of VEGFR-1 phosphorylation: significant inhibition
VEGFR-2 [5]
  inhibition of VEGFR-2 phosphorylation: significant inhibition
VEGFR-3
  inhibition of VEGFR-3 phosphorylation: significant inhibition
PDGFR-α
  inhibition of PDGFR-α phosphorylation: significant inhibition
FGFR-1
  inhibition of FGFR-1 phosphorylation: significant inhibition
FGFR-2α
  inhibition of FGFR-2α phosphorylation: significant inhibition
HuDMEC [6]
  maximum inhibition of VEGF165-induced migration: 67%
[7]
  inhibition of PDGF-BB induced synovial cell invasion: approximately 40%
[8]; 7 doses, vehicle n = 8, p700 n = 10
  CIA progression: significantly inhibited
[8]; p < 0.001 2-way ANOVA
  clinical presentation of disease (arthritis score): reduced
[8]; plethysmometry, p < 0.05 2-way ANOVA, AUC NS
  hind paw inflammation (hind paw volume): reduced
HuDMEC [9]
  maximum inhibition of VEGF165-induced cell proliferation: 40%
[1]
  ability to inhibit the binding of VEGF165 to rhVEGFR-2: able to inhibit
HuDMEC [10]
  inhibition of VEGF165-induced HuDMEC tube formation: > 99%
  inhibition of tubule formation in response to VEGF121: > 97%
HuDMEC [10]; HuDMEC, 1 nM PDGF-BB, 6 h, n = 3, Fig. 3b
  inhibition of PDGF-BB-induced tubule formation: inhibited
HuDMEC [10]; HuDMEC, 6 h, n = 3, Fig. 3b
  inhibition of bFGF-induced tubule formation: inhibited
HuDMEC [10]; relative to untreated cells, data not shown
  effect on tubule formation in the absence of VEGF: no effect

## fibrinopeptide A (ADSGEGDFLAEGGGVR; Fibrinopeptide A; UniProt P02671 20-35, looked up) [control peptide, 16 amino acid biologically inert control peptide, purchased from Bachem, reference compound]
VEGFR-2 [2]
  inhibition of VEGF165-induced VEGFR-2 phosphorylation: no significant effect
PI3K
  inhibition of VEGF165-induced phosphorylation of PI3K: no significant effect
HuDMEC [11]
  concentration showing some toxicity to HuDMEC: ≥ 10 µM
HuDMEC [6]
  maximum inhibition of VEGF165-induced migration: no significant effect
HuDMEC [9]
  maximum inhibition of VEGF165-induced cell proliferation: no significant effect
HuDMEC [10]
  inhibition of VEGF165-induced HuDMEC tube formation: no significant effect
  inhibition of tubule formation in response to VEGF121: no significant effect

B1: full length TIMP-3: recombinant human tissue inhibitor of metalloproteinases-3, His-tagged, from High Five insect cells (protein)
chain: CTCSPSHPQDAFCNSDIVIRAKVVGKKLVKEGPFGTLVYTIKQMKMYRGFTKMPHVQYIHTEASESLCGLKLEVNKYQYLLTGRVYDGKMYTGLCNFVERWDQLTLSQRKGLNYRYHLGCNCKIKSCYYLPCFVTSKNECLWTDMLSNFGYPGYQSKHYACIRQKGGYCSWYRGWAPPDKSIINATDP
modifications: left off: His6, C-terminal, state not stated
VEGFR-2 [2]
  inhibition of VEGF165-induced VEGFR-2 phosphorylation: 45%
[1]
  ability to inhibit the binding of VEGF165 to rhVEGFR-2: able to inhibit
HuDMEC [10]; HuDMEC, 6 h, n = 3, Fig. 3b
  inhibition of bFGF-induced tubule formation: some inhibition
PDGFR-β
  inhibition of PDGFR-β: no inhibition
VEGFR-1 [12]
  inhibition of VEGFR-1: no inhibition
FGFR1
  inhibition of FGFR1: no inhibition
